The supplement of paper PMC13380429
Counter-ions that a name gives are not always drawn.

How the values were obtained:
Conditions in all cases: 72 h
U2OS [1] = test: relative viability EC50 (midpoint between 100% and the lowest measured viability); higher = less toxic
Vero E6 [2] = test: as above
HepG2 [3] = test: as above
Caco-2 [4] = test: as above
U2OS [5] = test: drug sensitivity score (DSS) for viability; higher = more toxic; extreme values may be limits of the assay
Vero E6 [6] = test: as above
Calu-3 [7] = test: as above
HepG2 [8] = test: as above
Caco-2 [9] = test: as above
U2OS [10] = test: cell viability relative to DMSO; higher = less toxic
Vero E6 [11] = test: as above
Calu-3 [12] = test: as above
HepG2 [13] = test: as above
Caco-2 [14] = test: as above
Calu-3 [15] = test: relative viability EC50 (midpoint between 100% and the lowest measured viability); higher = less toxic

Compound | relative viability EC50 (U2OS [1]) | relative viability EC50 (Vero E6 [2]) | relative viability EC50 (HepG2 [3]) | relative viability EC50 (Caco-2 [4]) | drug sensitivity score (U2OS [5]) | drug sensitivity score (Vero E6 [6]) | drug sensitivity score (Calu-3 [7]) | drug sensitivity score (HepG2 [8]) | drug sensitivity score (Caco-2 [9]) | cell viability (U2OS [10]; 1 nM) | cell viability (U2OS [10]; 10 nM) | cell viability (U2OS [10]; 100 nM) | cell viability (U2OS [10]; 1000 nM) | cell viability (U2OS [10]; 10000 nM) | cell viability (Vero E6 [11]; 1 nM) | cell viability (Vero E6 [11]; 10 nM) | cell viability (Vero E6 [11]; 100 nM) | cell viability (Vero E6 [11]; 1000 nM) | cell viability (Vero E6 [11]; 10000 nM) | cell viability (Calu-3 [12]; 1 nM) | cell viability (Calu-3 [12]; 10 nM) | cell viability (Calu-3 [12]; 100 nM) | cell viability (Calu-3 [12]; 1000 nM) | cell viability (Calu-3 [12]; 10000 nM) | cell viability (HepG2 [13]; 1 nM) | cell viability (HepG2 [13]; 10 nM) | cell viability (HepG2 [13]; 100 nM) | cell viability (HepG2 [13]; 1000 nM) | cell viability (HepG2 [13]; 10000 nM) | cell viability (Caco-2 [14]; 1 nM) | cell viability (Caco-2 [14]; 10 nM) | cell viability (Caco-2 [14]; 100 nM) | cell viability (Caco-2 [14]; 1000 nM) | cell viability (Caco-2 [14]; 10000 nM) | relative viability EC50 (Calu-3 [15])
[O-][S+](c1ccccc1)c1ccc2nnnn2n1 (stereo not drawn) [Ro-106-9920] | 2.84 µM | 2.28 µM | 3.03 µM | 2.54 µM | 6 | 6.4 | 1.9 | 5.8 | 4 | 99.9% | 103% | 95% | 95.9% | 2.5% | 97.7% | 95.6% | 95.9% | 90.5% | 12.1% | 96.3% | 94.9% | 105% | 98.8% | 63.7% | 106% | 102% | 110% | 98.1% | 1.1% | 89.7% | 92.3% | 92.1% | 95.4% | 39.5% | 
O=C1NC(=O)/C(=C/c2cccc(C(F)(F)F)c2)S1 [SMI-4a] |  | > 10 µM | > 10 µM | > 10 µM |  | 0 | 0 | 0 | 0 |  |  |  |  |  | 104% | 101% | 99.1% | 101% | 95.9% | 101% | 98.1% | 95.4% | 100% | 97.4% | 96.4% | 112% | 91% | 97.4% | 105% | 97.7% | 101% | 105% | 104% | 92.7% | > 10 µM
FC(F)(F)c1ccccc1-n1ccnc1 [TRIM] | > 10 µM |  | > 10 µM | > 10 µM | 0 |  | 0 | 0 | 0 | 99.6% | 97.8% | 103% | 95.7% | 103% |  |  |  |  |  | 98.7% | 99.5% | 92.6% | 97% | 97.2% | 96.7% | 110% | 108% | 103% | 89.5% | 106% | 104% | 98.6% | 93.5% | 108% | > 10 µM
Cc1cn(C[C@H](N)C(=O)O)c(=O)n(Cc2ccsc2C(=O)O)c1=O [UBP-310] | > 10 µM | > 10 µM | > 10 µM | > 10 µM | 0 | 0 |  | 0 | 0 | 98.8% | 97.3% | 98.5% | 97% | 98.5% | 97.3% | 101% | 98.3% | 97.6% | 97.3% |  |  |  |  |  | 96.6% | 91.3% | 94.6% | 91.2% | 88.1% | 99.7% | 93.6% | 101% | 93% | 99.5% | 
CN[C@H](CC(C)C)C(=O)N[C@H]1C(=O)N[C@@H](CC(N)=O)C(=O)N[C@H]2C(=O)N[C@H]3C(=O)N[C@H](C(=O)N[C@H](C(=O)O)c4cc(O)cc(O)c4-c4cc3ccc4O)[C@H](O)c3ccc(c(Cl)c3)Oc3cc2cc(c3O[C@@H]2O[C@H](CO)[C@@H](O)[C@H](O)[C@H]2O[C@H]2C[C@](C)(N)[C@H](O)[C@H](C)O2)Oc2ccc(cc2Cl)[C@H]1O [VANCOMYCIN HYDROCHLORIDE] | > 10 µM | > 10 µM | > 10 µM | > 10 µM | 0 | 0 |  | 0 | 0 | 99.7% | 95.6% | 97.4% | 101% | 106% | 98.1% | 99.5% | 98.3% | 98.5% | 104% |  |  |  |  |  | 93.7% | 105% | 105% | 96.4% | 125% | 80.7% | 92.2% | 94.9% | 99.8% | 100% | 
CCCCCCc1ccc(O)cc1O.Nc1c2ccccc2nc2ccccc12 [acrisorcin] | 2.75 µM | 2.49 µM | 1.65 µM | 2.66 µM | 4.5 | 6.8 | 2.5 | 9 | 3.3 | 100% | 101% | 100% | 96.1% | 27.9% | 105% | 102% | 102% | 91.7% | 0.3% | 99.1% | 88.3% | 101% | 96.4% | 60.7% | 103% | 106% | 95.3% | 77.9% | 0.3% | 99.5% | 103% | 96.6% | 96.7% | 47.4% | 
NCCCNCCSP(=O)(O)O [amifostine] |  | > 10 µM | > 10 µM | > 10 µM |  | 0 | 0 | 0 | 0 |  |  |  |  |  | 104% | 108% | 106% | 97.3% | 102% | 95.8% | 101% | 101% | 100% | 98% | 103% | 100% | 96.6% | 93% | 98.2% | 88.8% | 100% | 86.4% | 100% | 92.7% | > 10 µM
